Reference: article PMC9688159 (Cancers, 2022)
Like-named read-outs stand apart in the source and are kept apart here. Blank lines part the entries; values can stand above or below the compound they belong to. Square brackets hold non-standard residues; d marks the D form. Peptide text beside a SMILES is read from it. pGlu = O=C1CC[C@@H](C(=O)O)N1

Experiments:
[1] = test system: normal human fibroblasts (NHF); experiment: cell viability (MTS); assay type: cell-based
Text: (§1) Pancreatic carcinoma cell lines, PANC-1 (ACC 783), BxPC-3 (ACC 760), and Capan-1 (ACC 244), were obtained from DSMZ (Braunschweig, Germany). Normal human fibroblasts (NHF; 106-05A) were purchased from Sigma-Aldrich (Poznan, Poland). PANC-1 and NHF cells were maintained in DMEM containing 10% fetal bovine serum (FBS) and 1% antibiotic solution. BxPC-3 and Capan-1 cells were maintained in […] with 15% FBS and 1% penicillin/streptomycin solution. Cells were regularly tested for mycoplasma contamination.
(§2) In all experiments, cells were seeded in 96-well plates at a density of 4 × 10^3 (PANC-1, BxPC-3), 5 × 10^3 (Capan-1), and 2 × 10^3 (NHF) cells per well. Plates were incubated for 24 h at 37 °C.
(§3) To evaluate the effect of each compound on cell viability, cells were treated with different concentrations (0–60 µM) of tested compounds for 24, 48, and 72 h. Next, 20 µL of MTS solution was added to each well. Plates were incubated for 2 h at 37 °C. The absorbance was measured at 490 nm. Untreated cells served as a negative control. The number of viable cells is directly proportional to the intensity of color produced. Cell viability is expressed as a percentage of control cells.
(§4) Next, the medium was removed and a fresh medium containing tested compounds (at a concentration of 0–60 µM) was added. Plates were incubated for a further 24 h. Next, 20 µL of MTS solution was added to each well, and incubation was started (for 2 h at 37 °C). The absorbance was measured at 490 nm. Untreated cells served as a negative control.

[2] = test system: PANC-1, BxPC-3, Capan-1 cells and NHF; assay type: cell-based, human
Text: as §1, §2, §3

BxPC-3 cells [3] = experiment: cell viability (MTS); assay type: cell-based, human
Text: as §1, §2, §3, §4

PANC-1 cells = experiment: cell viability (MTS); assay type: cell-based, human
Text: as §1, §2, §3, §4

Capan-1 cells = experiment: cell viability (MTS); assay type: cell-based, human
Text: as §1, §2, §3, §4

[4] = test system: PANC-1, BxPC-3 and NHF cells; experiment: cell migration (scratch assay), statements for several cell lines together; assay type: cell-based, human; conditions: for effect on cell migration: scratch assay, 0-40 µM, 24 and 48 h
Method: In all experiments, cells were seeded in 24-well plates at a density of 7 × 10^3 (PANC-1, BxPC-3) and 4 × 10^3 (NHF) cells per well and incubated for 48 h. Next, clear lines were made using a sterile 10 μL pipette tip. The medium was carefully removed, and 500 µL of fresh medium was added to the cells. For evaluation of the effect of each compound on cell proliferation, cells were treated with different concentrations (0–40 µM) of tested compounds. Phase-contrast microscopic pictures were taken at 24, 48, and 72 h, and the area of the wound was measured using Image J software (National Institute of Health, V1.5, Bethesda, […], USA). […] Phase-contrast microscopic pictures were taken at 6 and 24 h. The cell migration rate was calculated by measuring the area of the wound at each timepoint. The measurements were performed using ImageJ software. The medium was not changed during the experiment. Due to its inability to form a confluent monolayer, cell migration was not evaluated for Capan-1 cells.

GRP-Rs = test system: GRP-Rs; set-up: method as in PMID 1850273; conditions: compared with GRP; cited from earlier work
DRD1 [5] = target: T1, DRD1 (Rattus norvegicus, UniProt P18901); experiment: biochemical
T1 sequence (P18901 whole entry): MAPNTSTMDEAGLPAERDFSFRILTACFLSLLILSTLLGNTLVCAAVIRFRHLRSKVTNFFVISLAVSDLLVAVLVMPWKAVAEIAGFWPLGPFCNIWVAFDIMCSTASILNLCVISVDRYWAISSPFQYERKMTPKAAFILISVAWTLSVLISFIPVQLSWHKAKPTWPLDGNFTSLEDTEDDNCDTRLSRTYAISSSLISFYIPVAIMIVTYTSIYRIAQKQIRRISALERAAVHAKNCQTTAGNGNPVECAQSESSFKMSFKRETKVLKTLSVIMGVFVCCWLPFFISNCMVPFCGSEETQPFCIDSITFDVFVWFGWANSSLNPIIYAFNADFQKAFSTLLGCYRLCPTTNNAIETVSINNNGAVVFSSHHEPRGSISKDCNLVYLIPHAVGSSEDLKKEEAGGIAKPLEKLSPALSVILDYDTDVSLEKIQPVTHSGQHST
Method: (§5) Rats were decapitated, and their brains and spinal cords were quickly removed. […] Briefly, the brains and spinal cords were homogenized in freshly prepared ice-cold Tris-HCl buffer (50 mM, pH 7.4) and centrifuged at 18,000 rpm for 20 min (4 °C). The resulting supernatant was removed while the pellet was taken up in the original volume of Tris-HCl buffer. The homogenate was further incubated at 37 °C for 30 min and again centrifuged. The received pellet was consequently suspended in 50 mM Tris-HCl (pH 7.4) buffer and kept until analysis at −80 °C.
(§6) In DRD1 displacement, the Tris-HCl buffer (pH 7.4) contained 120 mM NaCl, 5 mM KCl, 1 mM MgCl2, 2 mM CaCl2, and 1 µM mianserin. In DRD2 displacement, the Tris-HCl buffer (pH 7.4) was a mixture of 5 mM KCl, 2 mM MgCl2, 2 mM CaCl2, and 1 µM ketanserin. The incubation of tissue membranes was performed in the presence of the unlabeled ligands in increasing concentrations (10^−10–10^−5 M) at 35 °C for 45 min with [^3H]SCH-23390 and at 25 °C for 120 min with [^3H]spiperone. […] The experiment was performed in duplicate and repeated at least three times.
(§7) In the competition binding assays, the IC50 value was calculated using ‘one site competition’ fitting. The inhibitory activity was presented as a percentage of the specific binding observed.

DRD1 [6] = target: T1, DRD1; conditions: read-out: IC50, DRD1; rat spinal cord homogenates; 2 nM [3H]SCH-23390
Method: as §5, §6, §7

DRD2 [7] = target: T2, DRD2 (Rattus norvegicus, UniProt P61169); experiment: [3H]spiperone competition binding (DRD2 displacement), membrane homogenates; conditions: 0.25 nM [3H]spiperone
T2 construct: from tissue; host or cells: Wistar rat brain and spinal cord membranes
T2 sequence (P61169 whole entry): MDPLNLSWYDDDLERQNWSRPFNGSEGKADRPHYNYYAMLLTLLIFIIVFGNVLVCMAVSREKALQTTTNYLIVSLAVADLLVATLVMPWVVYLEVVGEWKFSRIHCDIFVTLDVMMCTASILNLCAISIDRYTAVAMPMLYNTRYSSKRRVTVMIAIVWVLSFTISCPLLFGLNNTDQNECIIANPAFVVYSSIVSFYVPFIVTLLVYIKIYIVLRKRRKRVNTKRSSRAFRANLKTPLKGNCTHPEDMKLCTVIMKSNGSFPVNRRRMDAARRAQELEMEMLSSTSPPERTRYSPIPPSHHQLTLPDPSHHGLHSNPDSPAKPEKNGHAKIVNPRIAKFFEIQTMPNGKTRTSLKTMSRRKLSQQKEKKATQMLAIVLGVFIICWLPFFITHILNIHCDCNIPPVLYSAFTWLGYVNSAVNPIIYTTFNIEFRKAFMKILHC
Method: as §5, §6, §7

DRD2 [8] = target: T2, DRD2; experiment: ligand-stimulated [35S]GTPγS binding (G-protein activity), membrane homogenates; assay type: biochemical; conditions: for maximal G-protein efficacy (Emax): basal activity = 100%; for EC50: logarithm of EC50, read-out: potency (log EC50) (converted)
BxPC-3 cells [9] = experiment: cell migration (scratch assay); assay type: cell-based, human; conditions: BxPC-3, after 24 h
Method: In all experiments, cells were seeded in 24-well plates at a density of 7 × 10^3 (PANC-1, BxPC-3) and 4 × 10^3 (NHF) cells per well and incubated for 48 h. Next, clear lines were made using a sterile 10 μL pipette tip. The medium was carefully removed, and 500 µL of fresh medium was added to the cells.
For evaluation of the effect of each compound on cell proliferation, cells were treated with different concentrations (0–40 µM) of tested compounds. Phase-contrast microscopic pictures were taken at 24, 48, and 72 h, and the area of the wound was measured using Image J software (National Institute of Health, V1.5, Bethesda, MA, USA).
The cell migration rate was calculated by measuring the area of the wound at each timepoint. The measurements were performed using ImageJ software. The medium was not changed during the experiment. Due to its inability to form a confluent monolayer, cell migration was not evaluated for Capan-1 cells.

[10] = Homo sapiens, Fibroblast, NHF, 24 h
[11] = Homo sapiens, Fibroblast, NHF, 48 h
[12] = Homo sapiens, Fibroblast, NHF, 72 h
[13] = rat spinal cord membrane homogenates

SMILES: Cc1nc2n(c(=O)c1CCN1CCC(c3noc4cc(F)ccc34)CC1)CCCC2 [Risperidone]
effect on cell viability [1]: no effect
decrease in cell viability [2]: up to 20%

SMILES: CSCC[C@H](NC(=O)[C@H](Cc1ccccc1)NC(=O)[C@H](Cc1c[nH]cn1)NC(=O)CNC(=O)[C@@H](NC(=O)[C@H](C)NC(=O)[C@H](Cc1c[nH]c2ccccc12)NC(=O)[C@H](CCC(N)=O)NC(=O)[C@@H]1CCCN1C(=O)[C@@H](NC(=O)[C@@H]1CCC(=O)N1)C(C)C)C(C)C)C(N)=O [Ranatensin] ([pGlu]VPQWAVGHFM-NH2)
IC50 (BxPC-3 cells [3]; BxPC-3, 48 h): > 60 µM
IC50 (BxPC-3 cells [3]; BxPC-3, 72 h): > 60 µM
IC50 (PANC-1 cells; PANC-1, 48 h): > 60 µM
IC50 (PANC-1 cells; PANC-1, 72 h): > 60 µM
effect on cell viability (PANC-1 cells; PANC-1, prolonged incubation (48 and 72 h)): significant increase in PANC-1 cell viability
IC50 (Capan-1 cells; Capan-1, 48 h): > 60 µM
IC50 (Capan-1 cells; Capan-1, 72 h): > 60 µM
decrease in viability compared to the control (Capan-1 cells; Capan-1, RAN only, 24 h): around 20%
affinity for GRP-Rs (GRP-Rs): equal affinity for GRP-Rs to GRP itself
IC50 (DRD1 [5]): > 10 µM
IC50 (DRD1 [6]): > 10 µM
IC50 ([1]; NHF, 48 h): > 60 µM
IC50 ([1]; NHF, 72 h): > 60 µM
effect on cell viability ([1]; NHF, longer exposure (48 and 72 h)): reduction in fibroblast viability compared to untreated cells
migration rate of DRD2-blocked cells ([4]; PANC-1 and BxPC-3, risperidone pretreated, 24 h): slower in comparison to cells treated with RAN alone
effect on cell migration [4]: migrated at a similar rate to untreated cells
effect on cell viability ([2]; cancer cells, 24 h): lower viability compared to the untreated cells
IC50 (DRD2 [7]; rat brain membranes): 0.0127 µM
IC50 (DRD2 [7]; rat spinal cord homogenates): 0.0488 ± 0.00115 µM
functional character at DRD2 (DRD2 [8]; conclusion from binding and [35S]GTPγS assays): DRD2 agonist
maximal G-protein efficacy (Emax) (DRD2 [8]; rat brain membrane homogenates): 124.1%
EC50 (DRD2 [8]; rat brain membrane homogenates): 0.0184 µM
Emax in presence of selective DRD2 antagonist risperidone (DRD2 [8]; rat brain, basal = 100%): 101.5%
maximal G-protein efficacy (Emax) (DRD2 [8]; [13]): 119.8%
EC50 (DRD2 [8]; [13]): 0.78 µM
Emax in presence of selective DRD1 antagonist SCH-39166 (DRD2 [8]; rat spinal cord membranes, basal = 100%): 117.4%
Emax in presence of selective DRD2 antagonist risperidone (DRD2 [8]; rat spinal cord, basal = 100%): 100.0%
concentration with total wound closure (BxPC-3 cells [9]): ≥ 20 µM

SMILES: NCCc1ccc(O)c(O)c1 [Dopamine]
IC50 (BxPC-3 cells [3]; Homo sapiens, BXPC-3, 24 h): > 60 µM
IC50 (BxPC-3 cells [3]; Homo sapiens, BXPC-3, 48 h): > 60 µM
IC50 (BxPC-3 cells [3]; Homo sapiens, BXPC-3, 72 h): > 60 µM
IC50 (PANC-1 cells; Homo sapiens, PANC-1, 24 h): > 60 µM
IC50 (PANC-1 cells; Homo sapiens, PANC-1, 48 h): > 60 µM
IC50 (PANC-1 cells; Homo sapiens, PANC-1, 72 h): > 60 µM
IC50 (Capan-1 cells; Homo sapiens, CAPAN-1, 24 h): > 60 µM
IC50 (Capan-1 cells; Homo sapiens, CAPAN-1, 48 h): > 60 µM
IC50 (Capan-1 cells; Homo sapiens, CAPAN-1, 72 h): > 60 µM
IC50 [1, 10]: > 60 µM
IC50 [1, 11]: > 60 µM
IC50 [1, 12]: > 60 µM
effect on cell migration [4]: did not significantly increase
effect on cell viability ([2]; all tested cells): increase in cell viability

Now from value to compound, other results behind:

IC50 (BxPC-3 cells [3]; Homo sapiens, BXPC-3, 24 h): 21.7 ± 2.27 µM
IC50 (BxPC-3 cells [3]; Homo sapiens, BXPC-3, 48 h): 16.1 ± 0.94 µM
IC50 (BxPC-3 cells [3]; Homo sapiens, BXPC-3, 72 h): 17.8 ± 1.38 µM
IC50 (PANC-1 cells; Homo sapiens, PANC-1, 24 h): 15.1 ± 1.51 µM
IC50 (PANC-1 cells; Homo sapiens, PANC-1, 48 h): 17 ± 1.08 µM
IC50 (PANC-1 cells; Homo sapiens, PANC-1, 72 h): 20.3 ± 2.02 µM
SMILES: O=c1[nH]c2ccccc2n1C1CCN(CCCC(c2ccc(F)cc2)c2ccc(F)cc2)CC1 [Pimozide, pimozide]
IC50 (Capan-1 cells; Homo sapiens, CAPAN-1, 24 h): 25.3 ± 3.11 µM
IC50 (Capan-1 cells; Homo sapiens, CAPAN-1, 48 h): 20.7 ± 1.3 µM
IC50 (Capan-1 cells; Homo sapiens, CAPAN-1, 72 h): 20 ± 1.79 µM
IC50 [1, 10]: 38.7 ± 1.37 µM
IC50 [1, 11]: 28.7 ± 3.82 µM
IC50 [1, 12]: 23.6 ± 0.92 µM
effect on cell migration [4]: decreased with the increasing concentration

IC50 (BxPC-3 cells [3]; Homo sapiens, BXPC-3, 24 h): > 60 µM
IC50 (BxPC-3 cells [3]; Homo sapiens, BXPC-3, 48 h): 0.643 ± 0.05 µM
IC50 (BxPC-3 cells [3]; Homo sapiens, BXPC-3, 72 h): 0.296 ± 0.15 µM
IC50 (PANC-1 cells; Homo sapiens, PANC-1, 24 h): > 60 µM
IC50 (PANC-1 cells; Homo sapiens, PANC-1, 72 h): 0.28 ± 0.031 µM
SMILES: Nc1ccn([C@@H]2O[C@H](CO)[C@@H](O)C2(F)F)c(=O)n1 [Gemcitabine, gemcitabine]
IC50 (Capan-1 cells; Homo sapiens, CAPAN-1, 24 h): > 60 µM
IC50 (Capan-1 cells; Homo sapiens, CAPAN-1, 72 h): 0.657 ± 0.13 µM
IC50 [1, 10]: > 60 µM
IC50 [1, 12]: 1.28 ± 0.1 µM
effect on cell migration [4]: slower migration with increasing concentration
